Assay results from US9902696B2, “1,4-substituted piperidine derivatives” (Cephalon, Inc., priority 2015, dated 2018).
Where a name gives a salt, the structure may show the parent alone.

target: T1, recombinant human baculovirus-expressed GST-tagged FASN (Homo sapiens, UniProt P49327); experiment: FASN enzyme activity assay, fluorescence-based detection of CoA with CPM; type: biochemical; conditions: 5 nM FASN, 150 μM NADPH, 10 μM acetyl-CoA, 25 μM malonyl-CoA, 90 minutes incubation; read-out: IC50 data for Compounds of Formulae I-V/V(a): Activity
T1 construct: GST
T1 sequence (P49327 whole entry): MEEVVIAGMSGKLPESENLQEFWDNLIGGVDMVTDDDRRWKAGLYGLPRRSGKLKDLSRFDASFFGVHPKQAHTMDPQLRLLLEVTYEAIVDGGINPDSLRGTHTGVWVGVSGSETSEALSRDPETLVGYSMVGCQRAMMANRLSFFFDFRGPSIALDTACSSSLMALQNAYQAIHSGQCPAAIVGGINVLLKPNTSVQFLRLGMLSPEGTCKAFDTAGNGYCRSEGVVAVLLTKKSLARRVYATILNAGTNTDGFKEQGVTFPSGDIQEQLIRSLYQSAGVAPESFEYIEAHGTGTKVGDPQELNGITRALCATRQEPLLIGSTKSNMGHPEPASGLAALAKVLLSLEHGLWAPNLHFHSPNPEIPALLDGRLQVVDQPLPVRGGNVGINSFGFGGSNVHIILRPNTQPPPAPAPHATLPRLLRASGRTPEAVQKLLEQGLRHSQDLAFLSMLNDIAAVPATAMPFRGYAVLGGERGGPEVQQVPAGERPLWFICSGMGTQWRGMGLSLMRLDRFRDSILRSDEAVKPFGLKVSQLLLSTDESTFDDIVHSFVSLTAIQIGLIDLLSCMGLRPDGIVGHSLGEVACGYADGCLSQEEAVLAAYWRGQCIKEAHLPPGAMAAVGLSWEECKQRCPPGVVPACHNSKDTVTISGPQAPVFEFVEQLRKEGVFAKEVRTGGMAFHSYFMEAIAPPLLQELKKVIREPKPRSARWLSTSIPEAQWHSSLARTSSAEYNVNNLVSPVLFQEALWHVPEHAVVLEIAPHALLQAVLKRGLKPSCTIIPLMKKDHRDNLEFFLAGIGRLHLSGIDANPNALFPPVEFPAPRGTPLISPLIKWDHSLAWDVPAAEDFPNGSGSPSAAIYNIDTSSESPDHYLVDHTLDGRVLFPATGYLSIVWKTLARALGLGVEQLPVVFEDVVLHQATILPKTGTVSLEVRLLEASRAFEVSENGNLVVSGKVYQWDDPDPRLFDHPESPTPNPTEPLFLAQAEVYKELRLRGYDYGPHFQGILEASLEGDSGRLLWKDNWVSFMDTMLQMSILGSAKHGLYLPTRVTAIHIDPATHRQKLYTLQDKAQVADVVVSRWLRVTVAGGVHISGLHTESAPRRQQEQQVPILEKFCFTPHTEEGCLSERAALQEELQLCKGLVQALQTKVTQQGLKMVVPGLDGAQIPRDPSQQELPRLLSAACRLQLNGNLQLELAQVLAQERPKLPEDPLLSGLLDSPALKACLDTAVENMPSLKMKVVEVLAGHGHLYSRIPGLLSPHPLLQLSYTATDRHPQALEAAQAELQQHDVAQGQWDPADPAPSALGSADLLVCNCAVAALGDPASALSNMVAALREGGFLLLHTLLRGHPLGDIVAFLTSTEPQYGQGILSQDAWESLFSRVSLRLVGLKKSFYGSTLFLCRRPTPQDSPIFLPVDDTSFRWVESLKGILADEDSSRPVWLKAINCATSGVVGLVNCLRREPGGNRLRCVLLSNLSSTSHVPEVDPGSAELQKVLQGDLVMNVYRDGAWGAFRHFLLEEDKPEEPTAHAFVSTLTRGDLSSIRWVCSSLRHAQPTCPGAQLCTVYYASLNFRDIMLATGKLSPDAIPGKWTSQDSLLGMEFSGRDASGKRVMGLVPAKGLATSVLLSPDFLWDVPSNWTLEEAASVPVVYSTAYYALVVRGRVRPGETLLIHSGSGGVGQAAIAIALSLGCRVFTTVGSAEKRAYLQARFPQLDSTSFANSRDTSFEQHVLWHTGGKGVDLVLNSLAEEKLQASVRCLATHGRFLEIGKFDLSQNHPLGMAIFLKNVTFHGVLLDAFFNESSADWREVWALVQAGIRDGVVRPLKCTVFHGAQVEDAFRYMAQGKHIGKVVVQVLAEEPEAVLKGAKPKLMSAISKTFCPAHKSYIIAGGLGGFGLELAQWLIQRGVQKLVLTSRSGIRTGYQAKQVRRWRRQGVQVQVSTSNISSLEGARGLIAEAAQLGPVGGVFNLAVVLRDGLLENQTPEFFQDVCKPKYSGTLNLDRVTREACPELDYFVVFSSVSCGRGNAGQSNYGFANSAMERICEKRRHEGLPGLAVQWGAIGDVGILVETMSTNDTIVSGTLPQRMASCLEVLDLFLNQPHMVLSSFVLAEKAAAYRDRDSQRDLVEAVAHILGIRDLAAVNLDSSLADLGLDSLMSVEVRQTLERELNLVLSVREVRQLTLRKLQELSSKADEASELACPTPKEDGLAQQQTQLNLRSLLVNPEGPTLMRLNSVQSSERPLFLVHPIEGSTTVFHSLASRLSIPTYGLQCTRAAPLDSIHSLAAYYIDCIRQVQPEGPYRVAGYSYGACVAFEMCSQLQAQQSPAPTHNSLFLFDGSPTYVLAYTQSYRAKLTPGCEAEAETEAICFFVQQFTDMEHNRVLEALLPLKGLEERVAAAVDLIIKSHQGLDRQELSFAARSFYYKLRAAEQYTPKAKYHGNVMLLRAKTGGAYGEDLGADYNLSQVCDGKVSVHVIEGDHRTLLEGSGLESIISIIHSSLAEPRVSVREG
How it was run: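 Human GST-tagged FASN, baculovirus-expressed (5 nM), in 50 mM HEPES pH 7.5 with 150 μM NADPH, 10 μM acetyl-CoA, 25 μM malonyl-CoA, 0.5% DMSO; malonyl-CoA-started, 90 min. Released CoA detected with CPM (50 μM dilution), 30 min, fluorescence ex 390/em 530. IC50 from variable-slope sigmoidal fit of % inhibition versus log concentration.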

Compound | IC50
CCC(=O)N1CCC(Oc2ccc(-c3ccc4nccn4c3)cc2)CC1 [Example 256, 1-[4-(4-Imidazo[1,2-a]pyridin-6-yl-phenoxy)-piperidin-1-yl]-propan-1-one, TFA salt] | 100 to 999 nM
O=C([C@H]1CCCO1)N1CCC(Oc2ccc(-c3ccc4cccnc4c3Cl)cc2)CC1 [Example 260, {4-[4-(8-Chloro-quinolin-7-yl)-phenoxy]-piperidin-1-yl}-(R)-tetrahydro-furan-2-yl-methanone, TFA salt] | 1 to 99 nM
CCC(=O)N1CCC(Oc2ccc(-c3ccc4cccnc4c3Cl)cc2)CC1 [Example 261, 1-{4-[4-(8-Chloroquinolin-7-yl)-phenoxy]-piperidin-1-yl}-propan-1-one] | 1 to 99 nM
COc1ccc2cc(-c3ccc(OC4CCN(C(=O)[C@H]5CCCO5)CC4)cc3)cnc2c1 [Example 262, {4-[4-(7-Methoxyquinolin-3-yl)-phenoxy]-piperidin-1-yl}-(R)-tetrahydro-furan-2-yl-methanone] | 1 to 99 nM
O=C([C@H]1CCCO1)N1CCC(Oc2ccc(-c3cnc4ccsc4c3)cc2)CC1 [Example 263, (R)-Tetrahydrofuran-2-yl-[4-(4-thieno[3,2-b]pyridin-6-yl-phenoxy)-piperidin-1-yl]-methanone, TFA salt] | 1 to 99 nM
CCC(=O)N1CCC(Oc2ccc(-c3cnc4ccsc4c3)cc2)CC1 [Example 264, 1-[4-(4-Thieno[3,2-b]pyridin-6-yl-phenoxy)-piperidin-1-yl]-propan-1-one, TFA salt] | 1000 to 10000 nM
CCC(=O)N1CCC(Oc2ccc(-c3ccc4scnc4c3)cc2)CC1 [Example 269, 1-[4-(4-Benzothiazol-5-yl-phenoxy)-piperidin-1-yl]-propan-1-one; TFA salt] | 100 to 999 nM
COc1c(-c2ccc(OC3CCN(C(=O)[C@H]4CCCO4)CC3)cc2)ccc2cccnc12 [Example 272, {4-[4-(8-Methoxyquinolin-7-yl)-phenoxy]-piperidin-1-yl}-(R)-tetrahydro-furan-2-yl-methanone, TFA salt] | 1 to 99 nM
CCC(=O)N1CCC(Oc2ccc(-c3ccc4cccnc4c3OC)cc2)CC1 [Example 273, 1-{4-[4-(8-Methoxyquinolin-7-yl)-phenoxy]-piperidin-1-yl}-propan-1-one, TFA salt] | 1 to 99 nM
Cc1cc2cccnc2cc1-c1ccc(OC2CCN(C(=O)[C@H]3CCCO3)CC2)cc1 [Example 275, {4-[4-(6-Methylquinolin-7-yl)-phenoxy]-piperidin-1-yl}-(R)-tetrahydro-furan-2-yl-methanone] | 100 to 999 nM
CCC(=O)N1CCC(Oc2ccc(-c3cc4ncccc4cc3C)cc2)CC1 [Example 276, 1-{4-[4-(6-Methylquinolin-7-yl)-phenoxy]-piperidin-1-yl}-propan-1-one] | 1000 to 10000 nM
CCC(=O)N1CCC(Oc2ccc(-c3ccc4cc(C#N)cnc4c3)cc2)CC1 [Example 277, 7-[4-(1-Propionyl-piperidin-4-yloxy)-phenyl]-quinoline-3-carbonitrile] | 100 to 999 nM
N#Cc1cnc2cc(-c3ccc(OC4CCN(C(=O)[C@H]5CCCO5)CC4)cc3)ccc2c1 [Example 278, 7-{4-[1-((R)-Tetrahydrofuran-2-carbonyl)-piperidin-4-yloxy]-phenyl}-quinoline-3-carbonitrile] | 1 to 99 nM
CCC(=O)N1CCC(Oc2ccc(-c3ccc4cc(C)cnc4c3)cc2)CC1 [Example 280, 1-{4-[4-(3-Methylquinolin-7-yl)-phenoxy]-piperidin-1-yl}-propan-1-one] | 1 to 99 nM
Cc1cc(-c2ccc(OC3CCN(C(=O)[C@H]4CCCO4)CC3)cc2)cn2ccnc12 [Example 283, {4-[4-(8-Methylimidazo[1,2-a]pyridin-6-yl)-phenoxy]-piperidin-1-yl}-(R)-tetrahydrofuran-2-yl-methanone] | 1 to 99 nM

Further lines, results first:

IC50 | Compound
1 to 99 nM | O=C(C1CC1)N1CCC(Oc2ccc(-c3cnc4sccc4c3)cc2)CC1 [Example 255, Cyclopropyl-[4-(4-thieno[2,3-b]pyridin-5-yl-phenoxy)-piperidin-1-yl]-methanone, TFA salt]
1 to 99 nM | O=C([C@H]1CCCO1)N1CCC(Oc2ccc(-c3ccc4c(Cl)ccnc4c3)cc2)CC1 [Example 257, {4-[4-(4-Chloroquinolin-7-yl)-phenoxy]-piperidin-1-yl}-(R)-tetrahydro-furan-2-yl-methanone, TFA salt]
100 to 999 nM | O=C(C1CC1)N1CCC(Oc2ccc(-c3ccc4c(Cl)ccnc4c3)cc2)CC1 [Example 258, {4-[4-(4-Chloroquinolin-7-yl)-phenoxy]-piperidin-1-yl}-cyclopropyl-methanone, TFA salt]
100 to 999 nM | CCC(=O)N1CCC(Oc2ccc(-c3ccc4c(Cl)ccnc4c3)cc2)CC1 [Example 259, 1-{4-[4-(4-Chloroquinolin-7-yl)-phenoxy]-piperidin-1-yl}-propan-1-one, TFA salt]
1 to 99 nM | O=C([C@H]1CCCO1)N1CCC(Oc2ccc(-c3ccc4cc(Cl)cnc4c3)cc2)CC1 [Example 265, {4-[4-(3-Chloroquinolin-7-yl)-phenoxy]-piperidin-1-yl}-(R)-tetrahydro-furan-2-yl-methanone, TFA salt]
100 to 999 nM | CCC(=O)N1CCC(Oc2ccc(-c3ccc4cc(Cl)cnc4c3)cc2)CC1 [Example 266, 1-{4-[4-(3-Chloroquinolin-7-yl)-phenoxy]-piperidin-1-yl}-propan-1-one, TFA salt]
1 to 99 nM | O=C([C@H]1CCCO1)N1CCC(Oc2ccc(-c3ccc4scnc4c3)cc2)CC1 [Example 267, [4-(4-Benzothiazol-5-yl-phenoxy)-piperidin-1-yl]-(R)-tetrahydrofuran-2-yl-methanone, TFA salt]
1000 to 10000 nM | O=C(C1CC1)N1CCC(Oc2ccc(-c3ccc4scnc4c3)cc2)CC1 [Example 268, [4-(4-Benzothiazol-5-yl-phenoxy)-piperidin-1-yl]-cyclopropylmethanone, TFA salt]
100 to 999 nM | Cn1ncc2ccc(-c3ccc(OC4CCN(C(=O)C5CC5)CC4)cc3)cc21 [Example 270, Cyclopropyl-{4-[4-(1-methyl-1H-indazol-6-yl)-phenoxy]-piperidin-1-yl}-methanone. TFA salt]
100 to 999 nM | Cn1ncc2ccc(-c3ccc(OC4CCN(C(=O)C5CCC5)CC4)cc3)cc21 [Example 271, Cyclobutyl-{4-[4-(1-methyl-1H-indazol-6-yl)-phenoxy]-piperidin-1-yl}-methanone, TFA salt]
1 to 99 nM | COc1c(-c2ccc(OC3CCN(C(=O)C4CC4)CC3)cc2)ccc2cccnc12 [Example 274, Cyclopropyl-{4-[4-(8-methoxyquinolin-7-yl)-phenoxy]-piperidin-1-yl}-methanone, HCl]
100 to 999 nM | N#Cc1cnc2cc(-c3ccc(OC4CCN(C(=O)C5CC5)CC4)cc3)ccc2c1 [Example 279, 7-[4-(1-Cyclopropanecarbonyl-piperidin-4-yloxy)-phenyl]-quinoline-3-carbonitrile]
1000 to 10000 nM | Cc1cnc2cc(-c3ccc(OC4CCN(C(=O)[C@H]5CCCO5)CC4)cc3)ccc2c1 [Example 281, {4-[4-(3-Methylquinolin-7-yl)-phenoxy]-piperidin-1-yl}-(R)-tetrahydro-furan-2-yl-methanone]
1000 to 10000 nM | Cc1cnc2cc(-c3ccc(OC4CCN(C(=O)C5CC5)CC4)cc3)ccc2c1 [Example 282, Cyclopropyl-{4-[4-(3-methylquinolin-7-yl)-phenoxy]-piperidin-1-yl}-methanone]
